Results from a melting point compilation (Tetko et al.; mined from patent text by program, amines drawn as free bases though some values may be those of a salt).

Row | Compound | melting point
1 | CCCNC(=O)C1(CCCCP(=O)(c2ccccc2)c2ccccc2)c2ccccc2-c2ccccc21 | 163 to 165 °C
2 | CN(Cc1ccc(NC(=O)C2=Cc3cc(-c4ccc(O)cc4)ccc3S(=O)(=O)CC2)cc1)C1CCOCC1 | 232 to 234 °C
3 | CC(=O)Nc1ccc(S(=O)(=O)c2cc(Br)nc(Br)c2)cc1 | 211 °C
4 | CCOc1c([C@@H]2C[C@@H]2/C=C/C(C)=C/C(=O)O)cc(C(C)(C)C)cc1C(C)(C)C (racemic) | 169 to 174 °C
5 | CC(C)(C)[Si](C)(C)N1C(=O)C[C@H]1CI | 71 to 72 °C
6 | CCOC(=O)CN(CCOc1cc2cc3ncc(C#N)c(Nc4cc(OC)c(Cl)cc4C)c3cc2cc1OCC)CC(=O)OCC | 85 to 86 °C
7 | O=C(NCC12CC3CC(CC(C3)C1)C2)c1c(Cl)ccc2nc(N3CCC[C@H](NCCc4nn[nH]n4)C3)ccc12 | 168 to 172 °C
8 | O=C1N(Nc2ccccc2)C(=S)OC12c1ccccc1-c1ccccc12 | 187 to 189 °C
9 | CCc1nc2c(N)nc(C)c(C)c2n1CCOCCNC(=O)C1CCCCC1 | 170 to 172 °C
10 | CS(=O)(=O)N1CCCC(NC(=O)C(CC2CCCC2)NC(=O)c2ccco2)C(=O)C1 (centres undefined) | 158 to 161 °C
11 | CN1C(=O)C(c2ccc(OC(F)F)cc2)(c2cccc(OCCC=C(F)F)c2)N=C1N (centres undefined) | 127 to 128 °C
12 | CCNCCC(=O)Nc1ccc2c(c1)C(=O)c1cc(NC(=O)CCNCC)ccc1C2=O | 181 °C
13 | CC#CCn1nc(-c2ccc(F)cc2)c(-c2ccc(S(C)(=O)=O)cc2)cc1=O | 81 to 82 °C
14 | Cc1cnc(-c2cc(=S)ss2)cn1 | 192 °C
15 | O=c1[nH]c(CCN2CCCCC2)cc2c(O)cccc12 | 261 to 263 °C
16 | C=C(C)c1ccncc1-c1c(O)cc(C(C)C(C)CCCCC)cc1O (centres undefined) | 128 to 129 °C
17 | CC(=O)Nc1c(C)c2c(c(C)c1N(C)C)OC(C)(C)C2 | 142 to 143 °C
18 | O=C(Cc1ccc2nc(CCCOc3cccc(CN4CCCC4)c3)[nH]c2c1)N1CCCC1 | 68 °C
19 | COC(=O)c1c(C(F)F)nc(C(F)(F)F)c(-n2cccc2)c1C1CCC1 | 70 to 71 °C
20 | CC(CN(C)C)CC(CNC(=O)NCCCl)(c1ccc(F)cc1)c1ccc(F)cc1 (centres undefined) | 105 to 107 °C
21 | COc1cc(C(=O)N2Cc3ccc(C(=O)NCc4ccc(C)cc4)n3Cc3ccccc32)ccc1-c1ccccc1C | 179 to 180 °C
22 | CC1=NC(NC(=O)Nc2cccc(C)c2)C(=O)N(CC(=O)C23CC4CC(CC(C4)C2)C3)c2c(C)cccc21 (centres undefined) | 182 to 184 °C
23 | COC(=O)[C@H](CC(=O)c1ccc2oc3ccccc3c2c1)NC(=O)c1ccccc1 | 65 to 70 °C

Row | Compound | melting point
24 | CC(=O)C(O)C1OC(n2cc(F)c(=O)[nH]c2=O)CC1(O)C(C)=O (centres undefined) | 148 to 149 °C
25 | O=C(CCc1cccnc1)C12CC3CC(CC(C3)C1)C2 | 43 to 44.5 °C
26 | CCOC(=O)COC1OCC[C@@H]1NC(=O)[C@H](Cc1ccccc1)NC(=O)OCc1ccccc1 (some centres undefined) | 103 to 106 °C
27 | O=C1NCCNN1c1ccc(Cc2ccc(Cl)cc2)c(Cl)c1 | 157 to 158 °C
28 | CCc1ccc(-c2cc3c(O)cccc3o2)s1 | 87 to 90 °C
29 | CCOC(=O)c1cc(NCc2ccccc2)c(Nc2cccc(C(F)(F)F)c2)c(S(N)(=O)=O)c1 | 189 to 190 °C
30 | Cc1ccc(Oc2ccc(C3NC(C(=O)O)CS3)cc2C#N)c(O)c1 (centres undefined) | 150 to 152 °C
31 | O=C(CN1CCN(c2cnccn2)CC1)N1CC=C(c2ccc(Cl)cc2)CC1 | 139 to 141 °C
32 | Cc1cc(NC(=O)c2c(Cl)cccc2Cl)c2nccc(Cl)c2c1 | 203 to 205 °C
33 | CCCNC(=O)N1C2=NC(C)(C)N(C)C(=O)N2c2ccccc21 | 85 to 87 °C
34 | COc1cc2scc(C(=O)Nc3cccnc3)c2cc1Br | 160 to 161 °C
35 | CN(C)C1CC=C(c2c[nH]c3ccc(NC(=N)c4cccs4)cc23)CC1 (centres undefined) | 113 to 115 °C
36 | O=C(NCCO)c1cccc(-c2cccc3cc(Cc4ccc(=O)[nH]c4)sc23)c1 | 134 to 137 °C
37 | CC(=O)Nc1ccc2c(-c3ccccc3)c([N+](=O)[O-])oc2c1 | 212 to 214 °C
38 | Cc1ccc(S(=O)(=O)OC[C@H]2COc3ccc([N+](=O)[O-])c(CC(=O)O)c3O2)cc1 | 158 to 159 °C
39 | CCCCC1(CC)CSc2ccccc2N(c2ccccc2)C1=O (centres undefined) | 90 °C
40 | CCCN(CCC)c1c(CC)nn2c(-c3ccc(N(C)C)cc3Cl)cccc12 | 133 to 134 °C
41 | NNC1=NC2CCCc3cccc(c32)N1 (centres undefined) | 191 to 193 °C
42 | Cc1ccc(C#CC2CCC3C4CCC5CC(O)CCC5(C)C4CCC23C)cc1 (centres undefined) | 178 to 180 °C
43 | CCN(CC)c1ccc(/C=C/c2cc(/C=C/c3ccc4cc[nH]c4c3)[nH]n2)c(OCCN2CCOCC2)c1 | 96 to 99 °C
44 | CC(=C(c1ccc(N(C)C)cc1)c1ccc(N(C)C)cc1)P(C1CCCCC1)C1CCCCC1 | 159 to 164 °C
45 | CCc1cn(C2CCC(CO)O2)c(=O)[nH]c1=O (centres undefined) | 109 to 113 °C

More lines, now with the values ahead:

Row | melting point | Compound
46 | 195 to 198 °C | Fc1ccccc1NC1(c2nnn[nH]2)CCN(Cc2ccccc2)CC1
47 | 142 to 144 °C | O=C1CCC(N2C(=O)c3cccc(OCc4ccc(CN5CCC(c6ccccc6)CC5)cc4)c3C2=O)C(=O)N1 (centres undefined)
48 | 181 to 184 °C | CC(=O)CCc1nc2c(N)nc3ccccc3c2n1CC(C)(C)O
49 | 139 to 140 °C | CCN(CCOC)C(=O)c1cc(-c2ccccc2)c(=O)n2c1-c1ccccc1C2
50 | > 300 °C | N#Cc1cc2nc(O)c(O)nc2c2ccccc12
51 | 86 to 88 °C | COc1ccc(C=O)c(Cl)c1OCc1ccccc1
52 | 222 to 224 °C | O=S1c2ccccc2-c2[nH]nc(-c3ccccc3)c21 (centres undefined)
53 | 246 to 248 °C | Nc1nc(N)nc(-c2ccc(OCc3ccc(Cl)cc3)cc2)n1
54 | 120 to 122 °C | COc1ccc(-c2nc(CNC(C)(C)C)nc3cc(OC)c(OC)cc23)cc1OC
55 | 220 to 221 °C | CN=c1[nH]c2ccccc2c2nc(-c3ccc[nH]3)nn12
56 | 264 °C | CC(C)n1cc(-c2nc(C(N)=O)c(N)nc2-c2ccc(OC(F)(F)F)cc2)ccc1=O
57 | 124 to 126 °C | CCOc1ccc2c(c1)CCc1c(C#N)cccc1S2
58 | 204 to 208 °C | COc1ccc2nc(COc3ccc(CC(S)C(N)=O)cc3)n(C)c2c1 (centres undefined)
59 | 130 to 132 °C | COC(=O)c1cccc(Cn2ccn(C3CCc4ccccc4C3)c2=S)c1 (centres undefined)
60 | 175 to 176 °C | COC(=O)c1c(OC)ccc2ccccc12
61 | 96 to 98 °C | Cc1c(C)c2c(c(C)c1O)CCC(C)(CCc1ccccc1)O2 (centres undefined)
62 | 243 to 246 °C | O=S(=O)(Nc1cccc(Nc2nc(NC3CCCC3)c3nc[nH]c3n2)c1)C(F)(F)F
63 | 175 °C | CC(=O)NCn1cc(-c2nc(Nc3ccccn3)sc2C)cn1
64 | 88 to 90 °C | O=C(c1ccccc1)c1cc2ccccc2o1
65 | > 250 °C | Cn1c(CN2C(=O)C3(COc4cc5c(cc43)OCO5)c3ccccc32)nc2ccccc21 (centres undefined)
66 | 165 to 167 °C | Cc1nc2ccccc2n2cnc(-c3noc(C4CC4)n3)c12
67 | 116 to 118 °C | Cc1nc2cccc3n(CCCCNS(=O)(=O)CC(F)(F)F)c(=O)c1n23
68 | 70 to 72 °C | COc1cc(C=CCn2cncn2)ccc1OCc1ccccc1
69 | < 20 °C | CC(=O)N1CCC(Cl)c2nc3ccccc3c(C)c2C1 (centres undefined)
